Data as given in patent publication US10787446B2 (GENENTECH, INC., priority 2015, dated 2020).

Molecular target: T1, hNav1.7 and the β1 subunit (Homo sapiens, UniProt Q15858)
T1 construct: expressed in transfected cells
Test: Tritiated compound competitive binding to membranes from cells heterologously expressing hNav1.7 and the β1 subunit (LBA)
Conditions: competition with 100 pM [3H]compound, 18 h, room temperature; IC50 by 4 parameter logistic model
Protocol: Example 235 Tritiated Compound Binding to Membranes Isolated from Cells that Heterologously Express hNav1.7 and the β1 Subunit
Preparation of membranes containing recombinantly expressed sodium channels: Frozen recombinant cell pellets were thawed on ice and diluted to 4 times the cell pellet weight with ice cold 50 mM Tris HCl, pH 7.4 buffer. The cell suspensions were homogenized on ice using a motorized glass dounce homogeniser. Homogenates were further diluted 8.4 times with ice cold 50 mM Tris HCl, pH 7.4 buffer and then centrifuged at 200×g at 4° C. for 15 min. The supernatants were collected and centrifuged at 10000×g at 4° C. for 50 min. The pellets were then re-suspended in 100 mM NaCl, 20 mM Tris HCl, pH 7.4 buffer containing 1% v/v protease inhibitors (Calbiochem) and re-homogenized on ice. The homogenized membranes were then processed through a syringe equipped with a 26 gauge needle. Protein concentrations were determined by Bradford Assay and the membranes were stored at −80° C.
Radioligand Binding Studies:
Saturation experiments. A competitive NaV1.7 inhibitor having a methyl group was tritiated. Three tritiums were incorporated in place of methyl hydrogens to generate [^3H]compound. Binding of this radioligand was performed in 5 mL borosilicate glass test tubes at room temperature. Binding was initiated by adding membranes to increasing concentrations of [^3H]compound in 100 mM NaCl, 20 mM Tris HCl, pH 7.4 buffer containing 0.01% w/v bovine serum albumin (BSA) for 18 h. […] After 18 h, the reactants were filtered through GF/C glass fiber filters presoaked in 0.5% w/v polyethylene imine. […] [^3H]compound bound to filters was quantified by liquid scintillation counting.
Competitive Binding Experiments:
Binding reactions were performed in 96-well polypropylene plates at room temperature for 18 h. In 360 μL, membranes were incubated with 100 pM [^3H]compound and increasing concentrations of Test Compound. […] Reactions were transferred and filtered through 96-well glass fiber/C filter plates presoaked with 0.5% polyethylene imine. The filtered reactions were washed 5 times with 200 μL ice cold buffer containing 0.25% BSA. Bound radioactivity was determined by liquid scintillation counting.
Data Analysis: For saturation experiments, non-specific binding was subtracted from total binding to provide specific binding and these values were recalculated in terms of pmol ligand bound per mg protein. Saturation curves were constructed and dissociation constants were calculated using the single site ligand binding model: Beq=(Bmax*X)/(X+Kd), where Beq is the amount of ligand bound at equilibrium, Bmax is the maximum receptor density, Kd is the dissociation constant for the ligand, and X is the free ligand concentration. For competition studies percent inhibition was determined and IC50 values were calculated using a 4 parameter logistic model (% inhibition=(A+((B−A)/(1+((x/C)^D)))) using XLfit, where A and B are the maximal and minimum inhibition respectively, C is the IC50 concentration and D is the (Hill) slope.

T1 sequence (Q15858 whole entry): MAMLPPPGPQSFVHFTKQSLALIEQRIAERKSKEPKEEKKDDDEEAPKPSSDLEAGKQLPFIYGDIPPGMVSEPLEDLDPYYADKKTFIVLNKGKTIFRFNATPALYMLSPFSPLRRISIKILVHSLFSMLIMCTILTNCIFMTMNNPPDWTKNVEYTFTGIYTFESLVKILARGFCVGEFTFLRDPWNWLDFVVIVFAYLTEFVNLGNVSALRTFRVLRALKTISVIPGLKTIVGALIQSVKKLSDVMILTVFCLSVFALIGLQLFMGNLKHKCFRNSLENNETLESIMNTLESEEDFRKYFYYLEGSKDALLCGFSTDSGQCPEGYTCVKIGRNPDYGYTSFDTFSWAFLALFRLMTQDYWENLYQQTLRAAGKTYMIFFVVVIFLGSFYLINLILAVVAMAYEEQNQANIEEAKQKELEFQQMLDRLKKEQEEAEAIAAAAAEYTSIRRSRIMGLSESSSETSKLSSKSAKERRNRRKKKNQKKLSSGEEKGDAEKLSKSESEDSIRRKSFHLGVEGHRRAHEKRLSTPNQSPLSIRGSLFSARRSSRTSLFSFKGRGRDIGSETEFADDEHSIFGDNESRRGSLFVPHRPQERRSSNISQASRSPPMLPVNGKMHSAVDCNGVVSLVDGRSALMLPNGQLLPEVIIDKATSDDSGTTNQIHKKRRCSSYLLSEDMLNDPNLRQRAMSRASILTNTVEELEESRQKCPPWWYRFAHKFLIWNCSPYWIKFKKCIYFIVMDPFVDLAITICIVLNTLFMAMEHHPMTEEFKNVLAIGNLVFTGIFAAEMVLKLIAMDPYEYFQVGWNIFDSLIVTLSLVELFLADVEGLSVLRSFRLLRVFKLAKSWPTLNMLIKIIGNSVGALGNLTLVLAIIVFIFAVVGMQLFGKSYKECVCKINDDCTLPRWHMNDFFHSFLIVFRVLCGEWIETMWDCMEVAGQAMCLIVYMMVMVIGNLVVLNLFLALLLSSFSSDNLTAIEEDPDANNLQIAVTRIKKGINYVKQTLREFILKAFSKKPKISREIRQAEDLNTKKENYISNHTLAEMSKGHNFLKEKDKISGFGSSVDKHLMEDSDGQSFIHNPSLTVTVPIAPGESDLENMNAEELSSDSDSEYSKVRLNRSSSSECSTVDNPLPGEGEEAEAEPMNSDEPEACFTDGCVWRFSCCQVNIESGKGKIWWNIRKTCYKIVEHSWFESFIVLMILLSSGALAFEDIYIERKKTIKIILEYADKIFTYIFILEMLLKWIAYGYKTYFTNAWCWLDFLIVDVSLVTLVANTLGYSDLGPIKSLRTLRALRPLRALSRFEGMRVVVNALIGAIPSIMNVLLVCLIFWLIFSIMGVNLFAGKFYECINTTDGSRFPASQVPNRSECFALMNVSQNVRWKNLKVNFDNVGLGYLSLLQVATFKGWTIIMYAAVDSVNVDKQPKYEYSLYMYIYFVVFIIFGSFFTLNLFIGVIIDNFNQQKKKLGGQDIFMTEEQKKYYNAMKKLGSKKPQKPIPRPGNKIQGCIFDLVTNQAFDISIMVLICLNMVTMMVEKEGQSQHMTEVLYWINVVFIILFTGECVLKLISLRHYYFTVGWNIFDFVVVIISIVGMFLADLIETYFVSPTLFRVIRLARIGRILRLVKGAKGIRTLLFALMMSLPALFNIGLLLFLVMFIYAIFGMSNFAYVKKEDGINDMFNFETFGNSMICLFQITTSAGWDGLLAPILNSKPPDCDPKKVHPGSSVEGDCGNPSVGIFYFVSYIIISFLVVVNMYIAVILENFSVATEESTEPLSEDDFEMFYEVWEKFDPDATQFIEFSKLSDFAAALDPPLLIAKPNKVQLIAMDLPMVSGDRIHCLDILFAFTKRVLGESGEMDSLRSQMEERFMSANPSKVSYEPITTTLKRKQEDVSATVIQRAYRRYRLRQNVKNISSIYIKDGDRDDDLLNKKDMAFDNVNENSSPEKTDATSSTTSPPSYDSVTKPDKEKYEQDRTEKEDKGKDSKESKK
T1 sequence (Q07699 19-218 partner): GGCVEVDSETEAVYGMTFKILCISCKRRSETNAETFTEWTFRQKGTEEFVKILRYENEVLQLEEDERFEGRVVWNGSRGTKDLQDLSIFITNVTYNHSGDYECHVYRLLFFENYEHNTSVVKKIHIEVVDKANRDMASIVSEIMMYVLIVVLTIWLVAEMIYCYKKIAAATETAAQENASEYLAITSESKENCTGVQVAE

SMILES | Nav1.7 (LBA) [µM]
O=S(=O)(Nc1ncns1)c1ccc2c(c1)OCC[C@@H]2N1CCN(S(=O)(=O)C(F)(F)F)C[C@H]1c1ccc(F)cc1 [Example 225, (S)-4-((R)-2-(4-fluorophenyl)-4-((trifluoromethyl)sulfonyl)piperazin-1-yl)-N-(1,2,4-thiadiazol-5-yl)chromane-7-sulfonamide] | 0.0057
O=S(=O)(Nc1nccs1)c1ccc2c(c1)OCC[C@@H]2N1CCCC[C@@H]1c1ccc(F)cc1 (single isomer, unassigned) [Example 100] | 0.0221
O=S(=O)(Nc1ncns1)c1ccc2c(c1)OCC[C@@H]2N1CCC(F)(F)C[C@@H]1c1ccc(F)cc1 (single isomer, unassigned) [Example 131] | 0.00851
O=S(=O)(Nc1ncns1)c1cc(F)c(CN2CC[C@@H](F)C[C@@H]2c2ccccc2)cc1F (single isomer, unassigned) [Example 30] | 1.71
C[C@@H]1CC[C@H](c2ccccc2)N(Cc2cc(F)c(S(=O)(=O)Nc3ncns3)cc2F)C1 (single isomer, unassigned) [Example 20] | 1.56
C[C@@H](c1ccc(S(=O)(=O)Nc2ncns2)cc1Cl)N1CCCC[C@@H]1c1ccccc1 (single isomer, unassigned) [Example 59] | 5.04
O=S(=O)(Nc1ncns1)c1ccc2c(c1)OCC[C@@H]2N1CC[C@H](C(F)(F)F)C[C@@H]1c1ccn[nH]1 (single isomer, unassigned) [Example 145] | 0.0117
CC(C)(O)[C@@H]1CCN([C@@H]2CCOc3cc(S(=O)(=O)Nc4ncns4)ccc32)[C@H](c2ccc(F)cc2)C1 (single isomer, unassigned) [Example 137] | 0.736
N#C[C@@H]1CCN([C@H]2CCOc3cc(S(=O)(=O)Nc4ncns4)ccc32)[C@H](c2ccc(F)cc2)C1 [Example 177, (S)-4-((2S,4R)-4-cyano-2-(4-fluorophenyl)piperidin-1-yl)-N-(1,2,4-thiadiazol-5-yl)chroman-7-sulfonamide] | 0.00584
O=S(=O)(Nc1ncns1)c1ccc2c(c1)CCC[C@@H]2N1CCCC[C@H]1c1ccccc1 (single isomer, unassigned) [Example 52] | 0.269
O=S(=O)(Nc1ncns1)c1ccc2c(c1)OCC[C@H]2N1CC[C@@H](C(F)F)C[C@H]1c1ccc(F)cc1 [Example 185, (R)-4-((2S,4R)-4-(difluoromethyl)-2-(4-fluorophenyl)piperidin-1-yl)-N-(1,2,4-thiadiazol-5-yl)chroman-7-sulfonamide] | 2.18
O=S(=O)(Nc1cccc(F)n1)c1ccc(CN2CCCC[C@H]2c2ccccc2)c(Cl)c1 [Example 73, (S)-3-chloro-N-(6-fluoropyridin-2-yl)-4-((2-phenylpiperidin-1-yl)methyl)-benzenesulfonamide] | 6.8
CS(=O)(=O)[C@@H]1CCN([C@H]2CCOc3cc(S(=O)(=O)Nc4nccs4)c(F)cc32)[C@H](c2ccc(F)cc2)C1 [Example 166, (S)-6-fluoro-4-((2S,4R)-2-(4-fluorophenyl)-4-(methylsulfonyl)piperidin-1-yl)-N-(thiazol-2-yl)chroman-7-sulfonamide] | 0.00212
O=S(=O)(Nc1ncns1)c1ccc2c(c1)OCC[C@@H]2N1CCN(CCF)C[C@H]1c1ccc(F)cc1 [Example 223, (S)-4-((R)-4-(2-fluoroethyl)-2-(4-fluorophenyl)piperazin-1-yl)-N-(1,2,4-thiadiazol-5-yl)chromane-7-sulfonamide] | 0.125
O=S(=O)(Nc1ncns1)c1cc(F)c(CN2CC[C@@H](OC(F)(F)F)C[C@H]2c2ccccc2)cc1F (single isomer, unassigned) [Example 111] | 0.0923
O=S(=O)(Nc1nccs1)c1cc2c(cc1F)[C@@H](N1CC[C@@H](C(F)(F)F)C[C@H]1c1ccc(F)cc1)CCO2 (single isomer, unassigned) [Example 92] | 0.000828

SMILES | Nav1.7 (LBA) [µM]
O=S(=O)(Nc1ncns1)c1ccc2c(c1)OCC[C@@H]2N1CCC(F)(F)C[C@H]1c1ccc(F)cc1 (single isomer, unassigned) [Example 134] | 0.00295
C[C@H]1CCCN(Cc2cc(F)c(S(=O)(=O)Nc3ncns3)cc2F)[C@H]1c1ccccc1 (single isomer, unassigned) [Example 22] | 1.55
O=S(=O)(Nc1ncns1)c1ccc2c(c1)OCC[C@H]2N1CCCC[C@H]1c1ccc(F)cc1 (single isomer, unassigned) [Example 77] | 0.198
O=S(=O)(Nc1nccs1)c1ccc2c(c1)OCC[C@@H]2N1CCCC[C@H]1c1ccccc1 (single isomer, unassigned) [Example 102] | 0.072
CC1(C#N)CCN([C@H]2CCOc3cc(S(=O)(=O)Nc4ncns4)ccc32)CC1 [Example 149, (S)-4-(4-cyano-4-methylpiperidin-1-yl)-N-(1,2,4-thiadiazol-5-yl)chromane-7-sulfonamide] | 8.6
O=S(=O)(Nc1ncns1)c1ccc2c(c1)OCC[C@@H]2N1CCC(C(F)(F)F)CC1 [Example 44, (S)—N-(1,2,4-thiadiazol-5-yl)-4-(4-(trifluoromethyl)piperidin-1-yl)chromane-7-sulfonamide] | 0.551
O=S(=O)(Nc1nccs1)c1cc2c(cc1F)[C@@H](N1CC[C@H](C(F)(F)F)C[C@@H]1c1ccc(F)cc1)CCO2 [Example 215, (S)-6-fluoro-4-((2R,4S)-2-(4-fluorophenyl)-4-(trifluoromethyl)piperidin-1-yl)-N-(thiazol-2-yl)chromane-7-sulfonamide] | 0.633
CC(C)(C)OC(=O)N1CCN([C@@H]2CCOc3cc(S(=O)(=O)Nc4ncns4)ccc32)[C@H](c2ccc(F)cc2)C1 [Example 216, Tert-butyl (R)-4-((R)-7-(N-(1,2,4-thiadiazol-5-yl)sulfamoyl)chroman-4-yl)-3-(4-fluorophenyl)piperazine-1-carboxylate] | 0.213
O=S(=O)(Nc1ncns1)c1cc(F)c(CN2CCCC[C@H]2c2cn[nH]c2)cc1F (single isomer, unassigned) [Example 25] | 2.24
CS(=O)(=O)[C@@H]1CCN([C@H]2CCOc3cc(S(=O)(=O)Nc4ncns4)ccc32)[C@H](c2ccc(F)cc2)C1 [Example 161, (S)-4-((2S,4R)-2-(4-fluorophenyl)-4-(methylsulfonyl)piperidin-1-yl)-N-(1,2,4-thiadiazol-5-yl)chroman-7-sulfonamide] | 0.00853
O=S(=O)(Nc1ncns1)c1ccc2c(c1)OCC[C@H]2N1CC[C@](O)(C(F)(F)F)C[C@@H]1c1ccc(F)cc1 [Example 170, (R)-4-((2R,4R)-2-(4-fluorophenyl)-4-hydroxy-4-(trifluoromethyl)piperidin-1-yl)-N-(1,2,4-thiadiazol-5-yl)chroman-7-sulfonamide] | 0.175
Cn1nccc1[C@@H]1C[C@H](C(F)(F)F)CCN1[C@H]1CCOc2cc(S(=O)(=O)Nc3ncns3)ccc21 (single isomer, unassigned) [Example 123] | 0.000616
O=S(=O)(Nc1ncccn1)c1cc2c(cc1F)C(N1CCC(C(F)(F)F)CC1c1ccc(F)cc1)CCO2 (racemic) [Example 96, (±)-(R)-6-fluoro-4-((cis)-2-(4-fluorophenyl)-4-(trifluoromethyl)piperidin-1-yl)-N-(pyrimidin-2-yl)chromane-7-sulfonamide] | 0.00994
CS(=O)(=O)[C@@H]1CCN([C@@H]2CCOc3cc(S(=O)(=O)Nc4nccs4)c(F)cc32)[C@H](c2ccc(F)cc2)C1 [Example 165, (R)-6-fluoro-4-((2S,4R)-2-(4-fluorophenyl)-4-(methylsulfonyl)piperidin-1-yl)-N-(thiazol-2-yl)chroman-7-sulfonamide] | 1.01
O=S(=O)(Nc1ncns1)c1cc(F)c(CN2CC[C@H](OC(F)(F)F)C[C@@H]2c2ccccc2)cc1F [Example 112, 2,5-Difluoro-4-(((2R,4S)-2-phenyl-4-(trifluoromethoxy)piperidin-1-yl)methyl)-N-(1,2,4-thiadiazol-5-yl)benzenesulfonamide] | 4.21
O=S(=O)(Nc1ncns1)c1cc(F)c(CN2CCC(F)(F)C[C@@H]2c2ccccc2)cc1F (single isomer, unassigned) [Example 33] | 4.16
